According to ChEMBL document CHEMBL1201862, “PubChem BioAssay data set” (2004):
Calls of active or inactive are those of the source.

What was measured:
[1] = non-specific 3'UTR reporter inhibition in Clone20-Shn3RL – cell-based, Renilla luciferase, cherry-picked, counter-screen for Shn3 inhibitor project, dose response (AID 624133); type: functional
[2] = reduction of Shn3 3'UTR-driven luciferase in osteoblasts – cell-based, Clone20 osteoblasts, firefly luciferase, cherry-picked, dose response (AID 624132); type: functional;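 note: firefly luciferase luminescence from reporter carrying the Shn3 3'UTR in osteoblasts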
CHO = CHO cell viability loss, potency – luminescence, cytotoxicity control for TLR9-MyD88 binding inhibitor project, dose response (AID 588339); type: functional, cell-based, hamster; details: Cricetulus griseus;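 note: CHO cells stably coexpressing TLR9 and MyD88 fusions from primary screen; compound exposure lasted 48 hours before viability readout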
[3] = loss of viability in HepG2 cells – cell-based, CellTiter-Glo, cherry-picked, cytotoxicity control for Shn3 inhibitor project, dose response (AID 624134); type: functional
[4] = target: T1, High affinity choline transporter 1 (Homo sapiens, UniProt Q9GZV3); test: human choline transporter blockers, potency – cell-based, 5-point CRC, membrane potential dye, dose response (AID 504840); type: functional
T1 sequence (Q9GZV3 whole entry): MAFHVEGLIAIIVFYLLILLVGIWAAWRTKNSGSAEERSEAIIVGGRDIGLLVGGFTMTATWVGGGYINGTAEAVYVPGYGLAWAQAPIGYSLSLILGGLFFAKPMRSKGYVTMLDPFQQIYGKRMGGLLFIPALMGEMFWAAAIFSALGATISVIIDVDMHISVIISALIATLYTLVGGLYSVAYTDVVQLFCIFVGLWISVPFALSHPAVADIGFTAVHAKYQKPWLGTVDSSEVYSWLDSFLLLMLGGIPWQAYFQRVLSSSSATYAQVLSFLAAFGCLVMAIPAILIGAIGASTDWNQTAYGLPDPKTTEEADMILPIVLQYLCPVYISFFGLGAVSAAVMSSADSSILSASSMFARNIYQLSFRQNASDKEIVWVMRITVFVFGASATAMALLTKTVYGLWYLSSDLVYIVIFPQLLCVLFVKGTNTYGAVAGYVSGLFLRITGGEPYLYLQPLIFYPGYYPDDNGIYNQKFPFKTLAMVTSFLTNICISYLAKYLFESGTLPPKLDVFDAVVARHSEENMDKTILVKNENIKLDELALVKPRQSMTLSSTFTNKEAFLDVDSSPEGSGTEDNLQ

[5] = target: T1, High affinity choline transporter 1; test: human choline transporter blockers, potency – cell-based, 10-point CRC, membrane potential dye, dose response (AID 588401); type: functional;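 note: membrane potential dye fluorescence of choline-evoked depolarization via CHT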
Beta Lactamase = Beta Lactamase (Pseudomonas aeruginosa, UniProt Q932Y6); test: BLA reporter interference, concentration series – BLA reporter cells, FRET fluorescence, artefact control for TLR9-MyD88 binding inhibitor project, dose response (AID 588341); type: cell-based;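 note: cell based assay in CHO-K1 cells stably expressing beta-lactamase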
Sequence of Beta Lactamase (Q932Y6 whole entry): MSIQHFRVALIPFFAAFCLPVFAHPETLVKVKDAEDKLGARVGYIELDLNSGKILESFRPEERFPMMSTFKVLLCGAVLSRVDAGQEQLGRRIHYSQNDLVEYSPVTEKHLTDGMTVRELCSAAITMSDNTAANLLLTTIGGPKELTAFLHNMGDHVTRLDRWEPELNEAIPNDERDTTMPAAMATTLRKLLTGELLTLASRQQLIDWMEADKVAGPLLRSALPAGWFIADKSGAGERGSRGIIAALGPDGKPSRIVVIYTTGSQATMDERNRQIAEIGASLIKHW

[6] = target: T2, Apoptotic protease-activating factor 1 (Homo sapiens, UniProt O14727); test: SAR analysis of small molecule Activators of Apaf-1 in a Fluorescent assay.; type: functional; details: read-out: EC50_Mean;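 note: caspase-3 cleavage of fluorogenic Rh110 DEVD substrate downstream of apoptosome activation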
T2 sequence (O14727 whole entry): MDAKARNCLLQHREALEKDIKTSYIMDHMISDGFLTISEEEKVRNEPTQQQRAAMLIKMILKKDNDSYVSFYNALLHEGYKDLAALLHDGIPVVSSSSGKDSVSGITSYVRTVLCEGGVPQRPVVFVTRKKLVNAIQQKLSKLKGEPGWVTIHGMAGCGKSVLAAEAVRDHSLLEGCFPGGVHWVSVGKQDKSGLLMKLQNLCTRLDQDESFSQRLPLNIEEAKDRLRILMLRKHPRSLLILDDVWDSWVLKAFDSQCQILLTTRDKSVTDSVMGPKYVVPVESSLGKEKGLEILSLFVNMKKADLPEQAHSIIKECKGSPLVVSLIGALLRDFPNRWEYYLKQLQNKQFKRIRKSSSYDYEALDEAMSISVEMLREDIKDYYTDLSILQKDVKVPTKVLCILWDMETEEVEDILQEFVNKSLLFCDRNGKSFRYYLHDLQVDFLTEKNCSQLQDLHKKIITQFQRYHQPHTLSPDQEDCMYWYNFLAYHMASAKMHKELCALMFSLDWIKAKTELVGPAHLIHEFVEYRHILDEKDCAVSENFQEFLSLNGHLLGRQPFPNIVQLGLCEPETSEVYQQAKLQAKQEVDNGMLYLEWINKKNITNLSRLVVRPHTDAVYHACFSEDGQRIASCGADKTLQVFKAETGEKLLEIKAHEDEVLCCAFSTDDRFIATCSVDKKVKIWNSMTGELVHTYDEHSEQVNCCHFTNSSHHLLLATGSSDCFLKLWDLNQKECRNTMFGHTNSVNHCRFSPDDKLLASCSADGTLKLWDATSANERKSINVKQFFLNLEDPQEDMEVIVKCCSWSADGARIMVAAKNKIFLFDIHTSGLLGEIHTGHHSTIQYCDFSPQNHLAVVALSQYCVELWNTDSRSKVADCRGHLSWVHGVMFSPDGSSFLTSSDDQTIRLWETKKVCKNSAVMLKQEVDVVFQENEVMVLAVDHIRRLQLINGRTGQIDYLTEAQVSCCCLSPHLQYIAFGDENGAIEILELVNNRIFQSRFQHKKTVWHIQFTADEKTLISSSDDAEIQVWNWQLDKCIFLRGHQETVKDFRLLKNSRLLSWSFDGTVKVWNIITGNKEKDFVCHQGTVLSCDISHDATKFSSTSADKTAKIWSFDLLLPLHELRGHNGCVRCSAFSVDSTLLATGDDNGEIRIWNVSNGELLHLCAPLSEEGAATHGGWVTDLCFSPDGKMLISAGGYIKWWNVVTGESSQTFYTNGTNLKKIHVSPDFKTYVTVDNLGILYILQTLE

[7] = target: T3, DNA repair and recombination protein RAD54-like (Homo sapiens, UniProt Q92698); test: RAD54 Holliday junction migration blockers – biochemical, fluorescence, cherry-picked samples, dose series, confirmation (AID 651657); type: functional
T3 sequence (Q92698 whole entry): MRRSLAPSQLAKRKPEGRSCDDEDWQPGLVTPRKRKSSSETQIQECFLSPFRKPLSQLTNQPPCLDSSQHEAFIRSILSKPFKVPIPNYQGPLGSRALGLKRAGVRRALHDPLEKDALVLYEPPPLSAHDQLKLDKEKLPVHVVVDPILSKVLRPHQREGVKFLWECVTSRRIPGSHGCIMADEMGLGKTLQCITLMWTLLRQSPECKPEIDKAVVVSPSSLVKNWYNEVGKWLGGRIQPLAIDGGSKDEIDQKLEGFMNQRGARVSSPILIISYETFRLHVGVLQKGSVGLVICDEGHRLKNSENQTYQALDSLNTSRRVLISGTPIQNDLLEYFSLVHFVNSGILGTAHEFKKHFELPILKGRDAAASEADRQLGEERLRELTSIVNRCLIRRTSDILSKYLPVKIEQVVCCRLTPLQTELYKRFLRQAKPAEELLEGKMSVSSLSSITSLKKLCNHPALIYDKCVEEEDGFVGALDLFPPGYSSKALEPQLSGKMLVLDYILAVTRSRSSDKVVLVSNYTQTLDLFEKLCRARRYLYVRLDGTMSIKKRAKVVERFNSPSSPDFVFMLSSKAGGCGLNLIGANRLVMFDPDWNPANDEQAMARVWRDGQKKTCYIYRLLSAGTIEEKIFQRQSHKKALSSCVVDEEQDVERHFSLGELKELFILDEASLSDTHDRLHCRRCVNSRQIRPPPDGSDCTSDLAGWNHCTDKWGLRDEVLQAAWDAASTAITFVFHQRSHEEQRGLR

[8] = Counterscreen for activators of the function of SWI/SNF related, matrix associated, actin dependent regulator of chromatin, subfamily a, member 2 (SMARCA2, BRM): Luminescence-based cell-based high throughput dose response assay to identify non-selective compounds using the VP16 reporter assay.; type: functional
[9] = cytotoxicity toward MDA-MB-231 breast cancer cells – cell-based, CellTiter-Glo luminescence, cherry-pick, cytotoxicity control for RAD54 inhibitor project, dose response (AID 651692); type: functional
[10] = target: SWI/SNF-related matrix-associated actin-dependent regulator of chromatin subfamily A member 2 (Homo sapiens, UniProt P51531); test: Luminescence-based cell-based high throughput dose response assay to identify activators of the function of SWI/SNF related, matrix associated, actin dependent regulator of chromatin, subfamily a, member 2 (SMARCA2, BRM).; type: functional
Sequence of SWI/SNF-related matrix-associated actin-dependent regulator of chromatin subfamily A member 2 (P51531 whole entry): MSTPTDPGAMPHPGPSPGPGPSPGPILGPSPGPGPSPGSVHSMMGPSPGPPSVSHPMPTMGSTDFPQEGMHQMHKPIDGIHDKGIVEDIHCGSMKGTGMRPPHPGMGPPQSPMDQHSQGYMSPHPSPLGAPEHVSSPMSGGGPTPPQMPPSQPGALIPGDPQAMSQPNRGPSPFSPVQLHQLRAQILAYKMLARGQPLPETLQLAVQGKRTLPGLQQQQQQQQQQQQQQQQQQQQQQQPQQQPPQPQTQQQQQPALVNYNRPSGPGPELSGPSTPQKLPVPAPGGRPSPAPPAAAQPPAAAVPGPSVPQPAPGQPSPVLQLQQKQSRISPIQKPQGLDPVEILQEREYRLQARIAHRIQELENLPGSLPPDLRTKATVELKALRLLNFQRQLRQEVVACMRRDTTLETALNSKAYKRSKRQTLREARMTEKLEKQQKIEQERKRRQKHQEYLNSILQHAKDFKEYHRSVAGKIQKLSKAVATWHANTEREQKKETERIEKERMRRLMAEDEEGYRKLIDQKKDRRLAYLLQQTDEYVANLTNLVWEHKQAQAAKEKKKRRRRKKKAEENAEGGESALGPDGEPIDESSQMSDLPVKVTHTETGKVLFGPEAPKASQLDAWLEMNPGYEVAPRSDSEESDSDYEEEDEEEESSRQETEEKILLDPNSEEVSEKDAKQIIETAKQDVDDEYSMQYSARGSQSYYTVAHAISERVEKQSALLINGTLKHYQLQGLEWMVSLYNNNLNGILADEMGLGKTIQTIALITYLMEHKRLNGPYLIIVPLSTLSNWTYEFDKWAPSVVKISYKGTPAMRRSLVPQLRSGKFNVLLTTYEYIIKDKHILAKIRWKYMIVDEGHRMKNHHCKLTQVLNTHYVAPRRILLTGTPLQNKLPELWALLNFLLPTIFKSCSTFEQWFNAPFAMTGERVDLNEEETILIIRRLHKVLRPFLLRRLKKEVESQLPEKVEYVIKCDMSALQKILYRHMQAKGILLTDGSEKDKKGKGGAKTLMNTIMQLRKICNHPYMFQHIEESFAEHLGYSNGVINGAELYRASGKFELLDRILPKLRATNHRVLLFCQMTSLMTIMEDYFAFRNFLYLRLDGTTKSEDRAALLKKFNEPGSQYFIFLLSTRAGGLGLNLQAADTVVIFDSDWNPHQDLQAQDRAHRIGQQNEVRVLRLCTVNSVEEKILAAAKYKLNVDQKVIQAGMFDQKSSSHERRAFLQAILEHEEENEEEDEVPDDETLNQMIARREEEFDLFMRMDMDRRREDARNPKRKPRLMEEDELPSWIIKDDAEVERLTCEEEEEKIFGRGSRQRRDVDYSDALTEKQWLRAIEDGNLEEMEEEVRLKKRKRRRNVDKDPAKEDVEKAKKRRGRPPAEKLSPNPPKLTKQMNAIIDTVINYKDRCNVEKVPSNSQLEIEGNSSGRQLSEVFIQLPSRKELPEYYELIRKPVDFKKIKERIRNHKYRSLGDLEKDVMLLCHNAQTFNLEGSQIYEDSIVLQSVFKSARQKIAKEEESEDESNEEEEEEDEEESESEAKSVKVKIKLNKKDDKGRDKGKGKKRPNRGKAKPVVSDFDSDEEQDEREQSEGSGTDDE

[11] = acridine orange displacement from DNA – biochemical, fluorescence polarization, cherry-pick, artefact control for RAD54 inhibitor project, dose response (AID 651673); type: functional
[12] = target: DNA (cytosine-5)-methyltransferase 1 (Homo sapiens, UniProt P26358); test: inhibition of DNA methylation by DNMT1 – biochemical, fluorescent molecular beacon, confirmation (AID 602386); type: functional
Sequence of DNA (cytosine-5)-methyltransferase 1 (P26358 whole entry): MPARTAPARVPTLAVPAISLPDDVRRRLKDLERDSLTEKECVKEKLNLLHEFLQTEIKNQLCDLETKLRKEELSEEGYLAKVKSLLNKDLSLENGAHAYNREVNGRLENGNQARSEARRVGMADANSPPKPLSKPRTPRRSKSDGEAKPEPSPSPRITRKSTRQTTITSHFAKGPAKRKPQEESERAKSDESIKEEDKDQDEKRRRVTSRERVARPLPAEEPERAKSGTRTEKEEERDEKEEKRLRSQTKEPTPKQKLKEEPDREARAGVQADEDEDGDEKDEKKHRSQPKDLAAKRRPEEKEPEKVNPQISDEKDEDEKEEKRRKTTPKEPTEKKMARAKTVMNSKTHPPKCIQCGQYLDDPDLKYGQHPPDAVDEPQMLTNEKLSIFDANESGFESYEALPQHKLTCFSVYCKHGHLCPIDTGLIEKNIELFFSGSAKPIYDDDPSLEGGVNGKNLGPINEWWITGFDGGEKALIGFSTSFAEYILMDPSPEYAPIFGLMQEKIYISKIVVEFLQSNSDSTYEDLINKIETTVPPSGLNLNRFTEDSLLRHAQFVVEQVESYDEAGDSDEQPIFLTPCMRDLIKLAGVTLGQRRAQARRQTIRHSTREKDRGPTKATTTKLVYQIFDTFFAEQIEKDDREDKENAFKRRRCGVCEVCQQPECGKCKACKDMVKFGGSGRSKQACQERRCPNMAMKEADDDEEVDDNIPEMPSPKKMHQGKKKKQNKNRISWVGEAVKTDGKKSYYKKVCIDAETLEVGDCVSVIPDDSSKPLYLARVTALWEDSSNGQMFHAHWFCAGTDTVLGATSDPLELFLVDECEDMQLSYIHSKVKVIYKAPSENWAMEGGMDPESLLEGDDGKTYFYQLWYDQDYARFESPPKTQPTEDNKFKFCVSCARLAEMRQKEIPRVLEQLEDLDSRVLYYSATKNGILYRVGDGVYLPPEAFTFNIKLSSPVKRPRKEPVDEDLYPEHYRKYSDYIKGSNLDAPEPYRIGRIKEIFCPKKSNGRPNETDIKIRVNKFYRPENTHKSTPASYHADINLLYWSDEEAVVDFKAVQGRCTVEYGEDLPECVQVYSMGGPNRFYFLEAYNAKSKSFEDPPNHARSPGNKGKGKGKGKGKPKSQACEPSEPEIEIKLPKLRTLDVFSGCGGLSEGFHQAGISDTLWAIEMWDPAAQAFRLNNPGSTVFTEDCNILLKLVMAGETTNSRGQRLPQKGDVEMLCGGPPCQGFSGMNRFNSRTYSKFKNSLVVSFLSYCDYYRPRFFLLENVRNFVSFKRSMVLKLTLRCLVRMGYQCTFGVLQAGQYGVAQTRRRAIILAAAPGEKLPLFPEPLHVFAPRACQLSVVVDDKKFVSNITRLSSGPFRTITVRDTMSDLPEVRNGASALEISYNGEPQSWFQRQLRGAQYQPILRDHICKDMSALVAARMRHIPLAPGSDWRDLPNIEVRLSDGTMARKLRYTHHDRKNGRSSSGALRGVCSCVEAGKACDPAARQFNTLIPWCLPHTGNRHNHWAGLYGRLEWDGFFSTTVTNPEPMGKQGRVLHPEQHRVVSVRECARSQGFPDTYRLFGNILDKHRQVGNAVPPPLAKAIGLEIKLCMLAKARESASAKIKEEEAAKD

[13] = target: T4, DNA repair protein RAD52 homolog (Homo sapiens, UniProt P43351); type: functional, biochemical
T4 sequence (P43351 whole entry): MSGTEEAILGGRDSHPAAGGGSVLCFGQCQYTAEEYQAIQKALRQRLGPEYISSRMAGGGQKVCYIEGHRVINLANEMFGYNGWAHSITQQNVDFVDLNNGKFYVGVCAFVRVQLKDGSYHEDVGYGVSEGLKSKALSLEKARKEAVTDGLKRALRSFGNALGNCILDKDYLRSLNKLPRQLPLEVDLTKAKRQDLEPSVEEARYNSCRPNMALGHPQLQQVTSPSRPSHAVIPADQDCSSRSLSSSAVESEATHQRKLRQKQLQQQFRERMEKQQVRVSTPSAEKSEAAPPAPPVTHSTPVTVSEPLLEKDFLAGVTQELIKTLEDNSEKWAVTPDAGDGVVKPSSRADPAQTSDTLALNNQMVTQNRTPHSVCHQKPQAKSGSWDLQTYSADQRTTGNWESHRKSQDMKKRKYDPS

[14] = target: T5, Low molecular weight phosphotyrosine protein phosphatase (Homo sapiens, UniProt P24666); type: functional; details: read-out: IC50_Mean;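 note: Dose-response confirmation assay measuring inhibition of LMPTP enzyme activity by fluorescence intensity read-out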
T5 sequence (P24666 whole entry): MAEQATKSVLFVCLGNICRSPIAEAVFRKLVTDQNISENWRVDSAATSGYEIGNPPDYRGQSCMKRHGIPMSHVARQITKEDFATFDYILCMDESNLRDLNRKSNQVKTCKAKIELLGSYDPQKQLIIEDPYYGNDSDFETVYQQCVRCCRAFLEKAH

[15] = target: Nuclear receptor subfamily 5 group A member 2 (Homo sapiens, UniProt O00482); type: functional, cell-based;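 note: HEK293T cells transfected with LRH-1 and a StAR promoter luciferase reporter; potency for inhibitors that lower LRH-1 driven reporter light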
Sequence of Nuclear receptor subfamily 5 group A member 2 (O00482 whole entry): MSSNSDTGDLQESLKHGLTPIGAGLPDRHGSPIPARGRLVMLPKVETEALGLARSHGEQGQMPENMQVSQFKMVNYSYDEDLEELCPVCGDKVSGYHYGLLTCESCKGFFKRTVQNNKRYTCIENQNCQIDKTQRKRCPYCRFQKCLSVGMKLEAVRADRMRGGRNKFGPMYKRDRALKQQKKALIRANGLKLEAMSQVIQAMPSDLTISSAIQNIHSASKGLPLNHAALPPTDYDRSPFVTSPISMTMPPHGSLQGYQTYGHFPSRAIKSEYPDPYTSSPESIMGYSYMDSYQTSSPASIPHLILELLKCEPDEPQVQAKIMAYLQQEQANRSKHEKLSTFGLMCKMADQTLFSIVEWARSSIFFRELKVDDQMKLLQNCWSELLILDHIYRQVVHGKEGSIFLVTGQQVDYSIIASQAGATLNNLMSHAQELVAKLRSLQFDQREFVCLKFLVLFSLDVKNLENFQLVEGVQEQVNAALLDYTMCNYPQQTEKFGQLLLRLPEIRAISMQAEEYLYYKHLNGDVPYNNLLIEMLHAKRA

Steroidogenic factor 1 = Steroidogenic factor 1 (Homo sapiens, UniProt Q13285); test: Counterscreen for inverse agonists of the liver receptor homolog-1 (LRH-1; NR5A2): Luminescence-based cell-based high throughput dose response assay to identify inverse agonists of the Steroidogenic Factor 1 Nuclear Receptor (SF1; NR5A1).; type: functional
Sequence of Steroidogenic factor 1 (Q13285 whole entry): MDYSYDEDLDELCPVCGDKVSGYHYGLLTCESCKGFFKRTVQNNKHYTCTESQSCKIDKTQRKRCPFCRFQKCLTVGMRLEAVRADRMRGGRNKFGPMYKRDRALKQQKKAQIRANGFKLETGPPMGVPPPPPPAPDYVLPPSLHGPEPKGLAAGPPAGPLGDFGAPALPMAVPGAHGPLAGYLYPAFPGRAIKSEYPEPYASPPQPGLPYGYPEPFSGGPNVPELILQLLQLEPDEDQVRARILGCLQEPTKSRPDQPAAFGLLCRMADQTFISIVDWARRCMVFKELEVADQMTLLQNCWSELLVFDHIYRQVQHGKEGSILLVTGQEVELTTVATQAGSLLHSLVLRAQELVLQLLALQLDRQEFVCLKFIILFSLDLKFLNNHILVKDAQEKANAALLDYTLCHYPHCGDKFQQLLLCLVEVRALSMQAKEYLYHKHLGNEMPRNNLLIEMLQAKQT

[16] = nonselective StAR promoter luciferase inhibitors – cell-based, luminescence, luciferase reporter, counter-screen for LRH-1 inverse agonist project, dose response (AID 651969); type: functional

O=c1oc2ccccc2c(Cl)c1CN1CCCCC1
AC50 [1]: 7.15 µM (active)
AC50 [2]: 4.99 µM (active)
IC50 (CHO): 1.22 µM (active)
AC50 [3]: > 70 µM (inactive)
IC50 [4]: 10 µM (active)
IC50 [5]: 6.69 µM (active)
IC50 (Beta Lactamase): 6.02 µM (active)

CCC(=O)N1CCc2cc(Br)c(S(=O)(=O)CCC(=O)Nc3cc(Cl)ccc3OC)cc21
EC50 [6]: > 100 µM (inactive)

COc1ccc2nc(C)cc(Nc3ccc(N4CCN(C)CC4)cc3)c2c1
AC50 [7]: 2.45 µM (active)
EC50 [8]: > 10.1 µM (inactive)
AC50 [9]: 52 µM (inactive)
EC50 [10]: > 3.38 µM (active)
AC50 [11]: 62 µM (active)
IC50 [12]: 11.4 µM (active)
AC50 [13]: 1.27 µM (active)

C/C(=N\NS(=O)(=O)c1ccc(Cl)c([N+](=O)[O-])c1)c1ccc(C)o1
IC50 [14]: 80 µM (inactive)

CCCc1cc(=O)oc2c(C)c(OCC(=O)NCCCn3ccnc3)ccc12
IC50 [15]: 35.9 µM (inactive)
IC50 (Steroidogenic factor 1): 10.8 µM (inactive)
IC50 [16]: 35.9 µM (inactive)
